The text below walks through data of PubChem BioAssay AID1259407 (Chemical Carcinogenesis Research Information System (CCRIS), 2018).

Active and inactive are the calls of the source. The rule behind the calls is not given here.

For this series, the system named is CCRIS mutagenicity, Ames/micronucleus/aberration tests. The series can be described thus: CCRIS mutagenicity studies.
Where [1] appears, read: Test System: AMES SALMONELLA TYPHIMURIUM, Strain/Indicator: TA98, Metabolic Activation: NONE, Method: PREINCUBATION
The mark [2] stands for this setting: Test System: AMES SALMONELLA TYPHIMURIUM, Strain/Indicator: TA98, Metabolic Activation: NONE, Method: STANDARD PLATE.
Setting [3] is: Test System: AMES SALMONELLA TYPHIMURIUM, Strain/Indicator: TA98, Metabolic Activation: RAT, LIVER, S-9, AROCLOR 1254, Method: STANDARD PLATE.
Setting [4] is: Test System: AMES SALMONELLA TYPHIMURIUM, Strain/Indicator: TA100, Metabolic Activation: NONE, Method: PREINCUBATION
The mark [5] stands for this setting: Test System: AMES SALMONELLA TYPHIMURIUM, Strain/Indicator: TA100, Metabolic Activation: NONE, Method: STANDARD PLATE.
[6] abbreviates: Test System: AMES SALMONELLA TYPHIMURIUM, Strain/Indicator: TA100, Metabolic Activation: RAT, LIVER, S-9, AROCLOR 1254, Method: STANDARD PLATE.
The mark [7] stands for this setting: Test System: AMES SALMONELLA TYPHIMURIUM, Strain/Indicator: TA1538, Metabolic Activation: RAT, LIVER, S-9, AROCLOR 1254, Method: STANDARD PLATE.
[8] abbreviates: Test System: AMES SALMONELLA TYPHIMURIUM, Strain/Indicator: TA1535, Metabolic Activation: NONE, Method: STANDARD PLATE.
Where [9] appears, read: Test System: AMES SALMONELLA TYPHIMURIUM, Strain/Indicator: TA1537, Metabolic Activation: NONE, Method: STANDARD PLATE.

On to `Nc1ccc(N=Nc2ccccc2)cc1`, for which the mutagenic call was “active; positive” (Test System: AMES SALMONELLA TYPHIMURIUM, Strain/Indicator: TA98, Metabolic Activation: HAMSTER, LIVER, S-9, AROCLOR 1254 (30%), Method: PREINCUBATION); “inactive; negative” under setting [1]; “inactive; negative” under setting [2]; “inactive; negative” (Test System: AMES SALMONELLA TYPHIMURIUM, Strain/Indicator: TA98, Metabolic Activation: RAT, LIVER, MICROSOMES, 4-AMINOAZOBENZENE, Method: PREINCUBATION); “inactive; negative” (Test System: AMES SALMONELLA TYPHIMURIUM, Strain/Indicator: TA98, Metabolic Activation: RAT, LIVER, MICROSOMES, AROCLOR 1254, Method: PREINCUBATION); “inactive; negative” (Test System: AMES SALMONELLA TYPHIMURIUM, Strain/Indicator: TA98, Metabolic Activation: RAT, LIVER, MICROSOMES, Method: PREINCUBATION). Moreover, the mutagenic call (Test System: AMES SALMONELLA TYPHIMURIUM, Strain/Indicator: TA98, Metabolic Activation: RAT, LIVER, S-9, AROCLOR 1254 (30%), Method: PREINCUBATION) was “active; positive”; the mutagenic call under setting [3] was “active; positive”; the mutagenic call (Test System: AMES SALMONELLA TYPHIMURIUM, Strain/Indicator: TA98, Metabolic Activation: RAT, LIVER, S-9, KC500 OR PHENOBARBITAL, Method: LIQUID SUSPENSION) is “active; positive”; the mutagenic call (Test System: AMES SALMONELLA TYPHIMURIUM, Strain/Indicator: TA98, Metabolic Activation: RAT, LIVER, S-9, PCB, Method: PREINCUBATION) is “active; positive”; the mutagenic call (Test System: AMES SALMONELLA TYPHIMURIUM, Strain/Indicator: TA100, Metabolic Activation: HAMSTER, LIVER, S-9, AROCLOR 1254 (30%), Method: PREINCUBATION) was “active; positive”; the mutagenic call under setting [4] is “inactive; negative”. In addition, the mutagenic call by setting is: under setting [5], “inactive; negative”; (Test System: AMES SALMONELLA TYPHIMURIUM, Strain/Indicator: TA100, Metabolic Activation: RAT, LIVER, S-9, AROCLOR 1254 (30%), Method: PREINCUBATION) “inactive; negative”; under setting [6], “active; positive”; (Test System: AMES SALMONELLA TYPHIMURIUM, Strain/Indicator: TA100, Metabolic Activation: RAT, LIVER, S-9, KC500 OR PHENOBARBITAL, Method: LIQUID SUSPENSION) “active; positive”; (Test System: AMES SALMONELLA TYPHIMURIUM, Strain/Indicator: TA100, Metabolic Activation: RAT, LIVER, S-9, PCB, Method: PREINCUBATION) “active; positive”; under setting [7], “active; positive”. The mutagenic call (Test System: UDS RODENT HEPATOCYTES, Strain/Indicator: THY INCORP (NON-S-PHASE), Method: AUTORADIOGRAPHY) was “active; positive”.

For the molecule `O=[N+]([O-])c1ccc2nscc2c1`, the mutagenic call is “active; positive” under setting [2]; “active; positive” (Test System: AMES SALMONELLA TYPHIMURIUM, Strain/Indicator: TA98, Metabolic Activation: S-9, Method: STANDARD PLATE); “active; positive” under setting [5]; “active; positive” (Test System: AMES SALMONELLA TYPHIMURIUM, Strain/Indicator: TA100, Metabolic Activation: S-9, Method: STANDARD PLATE); “active; positive” under setting [8]; “active; positive” (Test System: AMES SALMONELLA TYPHIMURIUM, Strain/Indicator: TA1535, Metabolic Activation: S-9, Method: STANDARD PLATE). Besides, the mutagenic call under setting [9] was “active; positive” and the mutagenic call (Test System: AMES SALMONELLA TYPHIMURIUM, Strain/Indicator: TA1537, Metabolic Activation: S-9, Method: STANDARD PLATE) is “active; positive”.

As to `O=S(=O)(O)OOS(=O)(=O)O`, the mutagenic call by setting is: (Test System: AMES SALMONELLA TYPHIMURIUM, Strain/Indicator: TA97, Metabolic Activation: NONE, Method: PREINCUBATION) “inactive; negative”; (Test System: AMES SALMONELLA TYPHIMURIUM, Strain/Indicator: TA97, Metabolic Activation: RAT, LIVER, S-9, AROCLOR 1254, Method: PREINCUBATION) “inactive; negative”; under setting [1], “inactive; negative”; (Test System: AMES SALMONELLA TYPHIMURIUM, Strain/Indicator: TA98, Metabolic Activation: RAT, LIVER, S-9, KC 500, Method: PREINCUBATION) “inactive; negative”; under setting [4], “inactive; negative”; (Test System: AMES SALMONELLA TYPHIMURIUM, Strain/Indicator: TA100, Metabolic Activation: RAT, LIVER, S-9, KC 500, Method: PREINCUBATION) “inactive; negative”. For the same molecule, the mutagenic call (Test System: AMES SALMONELLA TYPHIMURIUM, Strain/Indicator: TA102, Metabolic Activation: NONE, Method: PREINCUBATION) is “inactive; negative”; the mutagenic call (Test System: AMES SALMONELLA TYPHIMURIUM, Strain/Indicator: TA102, Metabolic Activation: RAT, LIVER, S-9, AROCLOR 1254, Method: PREINCUBATION) was “inactive; negative”; the mutagenic call (Test System: AMES SALMONELLA TYPHIMURIUM, Strain/Indicator: TA1535, Metabolic Activation: NONE, Method: PREINCUBATION) was “inactive; negative”; the mutagenic call (Test System: AMES SALMONELLA TYPHIMURIUM, Strain/Indicator: TA1535, Metabolic Activation: RAT, LIVER, S-9, KC 500, Method: PREINCUBATION) was “inactive; negative”; the mutagenic call (Test System: AMES SALMONELLA TYPHIMURIUM, Strain/Indicator: TA1537, Metabolic Activation: NONE, Method: PREINCUBATION) is “inactive; negative”; the mutagenic call (Test System: AMES SALMONELLA TYPHIMURIUM, Strain/Indicator: TA1537, Metabolic Activation: RAT, LIVER, S-9, KC 500, Method: PREINCUBATION) is “inactive; negative”. Further, the mutagenic call is “inactive; negative” (Test System: AMES SALMONELLA TYPHIMURIUM, Strain/Indicator: TA1538, Metabolic Activation: NONE, Method: PREINCUBATION); “inactive; negative” (Test System: AMES SALMONELLA TYPHIMURIUM, Strain/Indicator: TA1538, Metabolic Activation: RAT, LIVER, S-9, KC 500, Method: PREINCUBATION); “inactive; negative” (Test System: E. COLI, Strain/Indicator: WP2 UVRA, Metabolic Activation: NONE, Method: PREINCUBATION); “inactive; negative” (Test System: E. COLI, Strain/Indicator: WP2 UVRA, Metabolic Activation: RAT, LIVER, S-9, KC 500, Method: PREINCUBATION).

For `O=C(CBr)Nc1ccccc1`, the mutagenic call is, setting by setting: (Test System: AMES SALMONELLA TYPHIMURIUM, Strain/Indicator: TA100, Metabolic Activation: MOUSE, LIVER, S-9, AROCLOR 1254, Method: STANDARD PLATE) “inactive; negative”; under setting [5], “inactive; negative”.

Consider `[N-]=[N+]=NC[C@H]1O[C@H](O)[C@H](O)[C@@H](O)[C@@H]1O`, for which the mutagenic call was “inactive; negative” under setting [2] and “active; positive” under setting [5].

On to `CC(=O)Oc1ccccc1C(=O)Oc1ccccc1C(=O)O`, for which the mutagenic call is “inactive; negative” (Test System: AMES SALMONELLA TYPHIMURIUM, Strain/Indicator: TA97, Metabolic Activation: NONE, Method: STANDARD PLATE); “inactive; negative” (Test System: AMES SALMONELLA TYPHIMURIUM, Strain/Indicator: TA97, Metabolic Activation: RAT, LIVER, S-9, AROCLOR 1254, Method: STANDARD PLATE); “inactive; negative” under setting [2]; “inactive; negative” under setting [3]; “inactive; negative” under setting [5]; “inactive; negative” under setting [6]. In addition, the mutagenic call under setting [8] is “inactive; negative”; the mutagenic call (Test System: AMES SALMONELLA TYPHIMURIUM, Strain/Indicator: TA1535, Metabolic Activation: RAT, LIVER, S-9, AROCLOR 1254, Method: STANDARD PLATE) is “inactive; negative”; the mutagenic call under setting [9] is “inactive; negative”; the mutagenic call (Test System: AMES SALMONELLA TYPHIMURIUM, Strain/Indicator: TA1537, Metabolic Activation: RAT, LIVER, S-9, AROCLOR 1254, Method: STANDARD PLATE) is “inactive; negative”; the mutagenic call (Test System: AMES SALMONELLA TYPHIMURIUM, Strain/Indicator: TA1538, Metabolic Activation: NONE, Method: STANDARD PLATE) is “inactive; negative”; the mutagenic call under setting [7] was “inactive; negative”.
